How the values were obtained:
[1] = system: MOLM-14 D835Y cells, FLT3 ITD and FLT3 D835Y; test: Cell proliferation assay (CellTiter-Glo), MOLM-14 D835Y; assay type: cell-based; details: Homo sapiens, 72 h, 3d-Growth, GMean
Description: (§1) The FLT3 inhibitors may be assessed using the MOLM-14, Acute Myeloid Leukemia cell line that endogenously expresses FLT3 ITD or derivatives of the human FLT3 AML cell line which acquired the D835Y (activation loop) of F691L (gatekeeper) mutation after selection in escalating doses of the FLT3 Inhibitor AC220. FLT3 inhibitors may also be assessed using cells that are engineered to express mutant FLT3. For engineered cells, murine Ba/F3 cells were transfected with full-length FLT3 ITD/D835Y mutations. The parental BA/F3 cells are dependent upon Interleukin-3 (IL-3) for survival, and introduction of the FLT3 constructs rendered these cells dependent upon FLT3 kinase activity when cultured in the absences of IL-3. Engineered BA/F3 cell growth assays can be performed in either the […] of IL-3, to assess the compound inhibition of FLT3 or to detect the presence of off-target activity, respectively. Inhibitors of FLT3 kinase activity reduce or eliminate the FLT3 oncogenic signaling, resulting in reduced cell proliferation. This inhibition is measured as a function of compound concentration to asses IC50 values.
(§2) Cell lines used in proliferation assays are as follows in Table 3:
(§3) Cells were seeded at 1×10^4 cells per well of a 96 well cell culture plate in 50 μl of cell culture medium. Compounds were dissolved in DMSO, typically at a concentration of 0.5 mM and were serially diluted 1:3 for a total of eight points and added to the cells to final concentrations of […], 0.0041, 0.0014 and 0.00046 μM in 100 μl cell culture medium (final concentration 0.2% DMSO). […] The cells were incubated at 37° C., 5% CO2 for three days. CellTiter-Glo Buffer (Promega Cell Viability Assay catalog #G7573) and substrate were equilibrated to room temperature, and enzyme/substrate Recombinant Firefly Luciferase/Beetle Luciferin was reconstituted. The cell plates were equilibrated to room temperature for 30 minutes, then lysed by addition of an equivalent volume of the Celltiter-Glo Reagent. The plate was mixed for 10 minutes on a plate shaker to lyse the cells. The plates were read on a Tecan M1000 using Luminescence protocol modified to read 0.1 s per well. The luminescence reading assesses the ATP content, which correlates directly with cell number such that the reading as a function of compound concentration was used to determine the IC50 value.

[2] = target: T1, BA/F3-FLT3-ITD + D835Y cells (Homo sapiens, UniProt P36888, D835Y, cells depend on it, form not given); test: Cell proliferation assay (CellTiter-Glo), engineered BA/F3 cells; assay type: cell-based, murine; details: BaF3 FLT3 ITD/D835Y cells, 3d-Growth; read-out: BaF3_FLT3 ITD/D835Y 3d-Growth: IC50
T1 sequence (P36888 1-993 D835Y): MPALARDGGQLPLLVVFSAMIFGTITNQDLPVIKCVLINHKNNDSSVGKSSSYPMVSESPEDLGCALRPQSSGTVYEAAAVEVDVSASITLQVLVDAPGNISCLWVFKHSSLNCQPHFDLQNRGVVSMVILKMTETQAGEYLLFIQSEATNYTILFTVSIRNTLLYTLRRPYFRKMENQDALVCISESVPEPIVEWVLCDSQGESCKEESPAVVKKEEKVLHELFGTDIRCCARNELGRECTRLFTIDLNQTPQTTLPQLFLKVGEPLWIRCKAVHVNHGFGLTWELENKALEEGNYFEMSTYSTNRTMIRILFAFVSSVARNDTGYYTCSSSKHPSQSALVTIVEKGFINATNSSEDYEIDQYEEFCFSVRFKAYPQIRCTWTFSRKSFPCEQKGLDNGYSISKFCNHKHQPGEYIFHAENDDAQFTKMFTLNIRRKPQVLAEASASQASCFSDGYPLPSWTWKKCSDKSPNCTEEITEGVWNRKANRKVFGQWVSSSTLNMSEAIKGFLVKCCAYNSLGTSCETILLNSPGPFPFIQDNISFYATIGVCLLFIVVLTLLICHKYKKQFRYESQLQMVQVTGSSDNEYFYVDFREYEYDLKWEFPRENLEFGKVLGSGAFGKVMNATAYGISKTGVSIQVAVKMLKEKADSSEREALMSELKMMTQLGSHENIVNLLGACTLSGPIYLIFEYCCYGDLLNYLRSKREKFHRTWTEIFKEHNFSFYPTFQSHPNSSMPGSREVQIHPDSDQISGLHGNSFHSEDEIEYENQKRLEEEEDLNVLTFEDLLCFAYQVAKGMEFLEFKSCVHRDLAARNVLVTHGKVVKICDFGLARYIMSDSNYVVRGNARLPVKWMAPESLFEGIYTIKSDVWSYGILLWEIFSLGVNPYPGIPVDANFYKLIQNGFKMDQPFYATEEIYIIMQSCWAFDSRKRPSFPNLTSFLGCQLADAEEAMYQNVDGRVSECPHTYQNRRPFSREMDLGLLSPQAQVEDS
Description: as §1, §2, §3

c-KIT = target: T2, c-KIT (Homo sapiens, UniProt P10721); test: AlphaScreen kinase assay with recombinant enzyme, c-KIT; assay type: biochemical; details: 100ATP, 8pt, GMean
T2 construct: purchased Millipore 14-559K
Description: (§4) In order to determine the effect of compounds on FLT3 catalytic activity, kinase assays using recombinant enzymes and AlphaScreen® technology have been established. The catalytic activity of c-kit activity was also measured to determine selectivity of the compounds. When the kinases are catalytically active, they phosphorylate a biotinylated peptide substrate on tyrosine residues. Using AlphaScreen® technology, the ability of the compounds to affect the catalytic activity of the kinases can be measured quantitatively. The peptide substrate is immobilized by the AlphaScreen® Streptavidin Donor beads and, upon phosphorylation by a tyrosine kinase, can bind to AlphaScreen® Anti-Phosphotyrosine (PY20) Acceptor beads. Upon excitation of these beads with laser light at 680 nm, singlet oxygen is produced. This singlet oxygen is rapidly quenched, unless the AlphaScreen® Anti-Phosphotyrosine (PY20) Acceptor beads are in close proximity, in which case a proximity signal can be measured at 580 nm. In the presence of catalytic activity, there is a very strong proximity signal. Selective kinase inhibitors affect a decrease in this proximity signal through a decrease in tyrosine phosphorylation of the peptide substrate.
(§5) The assay was performed as summarized below.
(§6) Poly (Glu4-Tyr) Peptide, biotin conjugate [Biotin-GG(EEEEY)10EE] (SEQ ID NO: 4)
(§7) Final concentration=30 nM
(§8) Final concentration for IC50 determination=10 μM (FLT3-D835Y or FLT3-ITD) or 100 μM (c-KIT)
(§9) AlphaScreen® Phosphotyrosine (PY20) Assay Kit
(§10) Final concentration=10 μg/mL
(§11) Dilute compounds in DMSO to 20× final concentration.
(§12) Add 1 μl of compound to each well of 384 well reaction plate (Perkin Elmer #6005359).
(§13) Mix enzyme and Poly (Glu4-Tyr) Peptide substrate at 1.33× final concentration in assay buffer.
(§14) Mix ATP at 5× final concentration in assay buffer.
(§15) Add 15 μL enzyme/substrate mixture to the reaction plate.
(§16) Add 4 μL of ATP to the reaction plate.
(§17) Mix Streptavidin Donor beads at 6× final concentration in Stop/Detection buffer.
(§18) Add 5 μL Streptavidin Donor beads to the reaction plate. Centrifuge 1 minute, shake to mix, and incubate at room temperature for 20 minutes.
(§19) Mix Anti-Phosphotyrosine (PY20) Acceptor beads at 6× final concentration in Stop/Detection buffer.
(§20) Add 5 μL Anti-Phosphotyrosine (PY20) beads to the reaction plate.
(§21) Centrifuge 1 minute, shake to mix, and incubate at room temperature for 60 minutes.
(§22) Read plate on Wallac EnVision™ 2103 Multilabel Reader.

[3] = system: MOLM-14 F691L cells, FLT3 ITD and FLT3 F691L; test: Cell proliferation assay (CellTiter-Glo), MOLM-14 F691L; assay type: cell-based; details: Homo sapiens, 72 h, 3d-Growth, GMean
Description: as §1, §2, §3

FLT3-D835Y = target: T3, FLT3-D835Y (Homo sapiens, UniProt P36888, D835Y); test: AlphaScreen kinase assay with recombinant enzyme, FLT3-D835Y; assay type: biochemical; details: 8pt, GMean
T3 construct: purchased Invitrogen PV3967
T3 sequence (P36888 27-993 D835Y): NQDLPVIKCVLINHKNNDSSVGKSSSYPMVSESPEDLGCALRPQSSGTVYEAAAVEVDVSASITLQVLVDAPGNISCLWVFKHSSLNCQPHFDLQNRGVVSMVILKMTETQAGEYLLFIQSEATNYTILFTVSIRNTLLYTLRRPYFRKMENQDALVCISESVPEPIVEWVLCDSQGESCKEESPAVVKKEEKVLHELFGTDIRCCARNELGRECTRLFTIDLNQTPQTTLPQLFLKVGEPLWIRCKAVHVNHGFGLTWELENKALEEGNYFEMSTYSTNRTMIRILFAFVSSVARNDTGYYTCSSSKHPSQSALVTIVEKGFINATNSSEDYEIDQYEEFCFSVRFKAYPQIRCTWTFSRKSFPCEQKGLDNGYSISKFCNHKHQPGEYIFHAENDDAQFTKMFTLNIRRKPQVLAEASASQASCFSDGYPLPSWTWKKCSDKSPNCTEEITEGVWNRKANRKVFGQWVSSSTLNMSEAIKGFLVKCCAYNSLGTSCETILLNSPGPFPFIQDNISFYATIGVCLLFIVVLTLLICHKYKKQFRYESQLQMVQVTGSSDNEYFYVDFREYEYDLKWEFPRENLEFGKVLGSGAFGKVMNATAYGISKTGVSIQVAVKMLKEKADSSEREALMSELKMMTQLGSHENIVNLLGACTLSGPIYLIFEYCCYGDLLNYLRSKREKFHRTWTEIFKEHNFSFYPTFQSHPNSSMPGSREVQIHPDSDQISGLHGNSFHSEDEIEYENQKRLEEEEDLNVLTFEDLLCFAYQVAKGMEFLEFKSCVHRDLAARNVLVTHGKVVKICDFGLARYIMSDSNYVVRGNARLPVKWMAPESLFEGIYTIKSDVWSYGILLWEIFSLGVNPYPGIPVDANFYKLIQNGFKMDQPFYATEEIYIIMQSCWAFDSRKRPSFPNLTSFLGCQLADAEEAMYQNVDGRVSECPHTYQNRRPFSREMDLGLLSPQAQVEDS
Description: as §4, §5, §6, §7, §8, §9, §10, §11, §12, §13, §14, §15, §16, §17, §18, §19, §20, §21, §22

T2 sequence (P10721 26-976): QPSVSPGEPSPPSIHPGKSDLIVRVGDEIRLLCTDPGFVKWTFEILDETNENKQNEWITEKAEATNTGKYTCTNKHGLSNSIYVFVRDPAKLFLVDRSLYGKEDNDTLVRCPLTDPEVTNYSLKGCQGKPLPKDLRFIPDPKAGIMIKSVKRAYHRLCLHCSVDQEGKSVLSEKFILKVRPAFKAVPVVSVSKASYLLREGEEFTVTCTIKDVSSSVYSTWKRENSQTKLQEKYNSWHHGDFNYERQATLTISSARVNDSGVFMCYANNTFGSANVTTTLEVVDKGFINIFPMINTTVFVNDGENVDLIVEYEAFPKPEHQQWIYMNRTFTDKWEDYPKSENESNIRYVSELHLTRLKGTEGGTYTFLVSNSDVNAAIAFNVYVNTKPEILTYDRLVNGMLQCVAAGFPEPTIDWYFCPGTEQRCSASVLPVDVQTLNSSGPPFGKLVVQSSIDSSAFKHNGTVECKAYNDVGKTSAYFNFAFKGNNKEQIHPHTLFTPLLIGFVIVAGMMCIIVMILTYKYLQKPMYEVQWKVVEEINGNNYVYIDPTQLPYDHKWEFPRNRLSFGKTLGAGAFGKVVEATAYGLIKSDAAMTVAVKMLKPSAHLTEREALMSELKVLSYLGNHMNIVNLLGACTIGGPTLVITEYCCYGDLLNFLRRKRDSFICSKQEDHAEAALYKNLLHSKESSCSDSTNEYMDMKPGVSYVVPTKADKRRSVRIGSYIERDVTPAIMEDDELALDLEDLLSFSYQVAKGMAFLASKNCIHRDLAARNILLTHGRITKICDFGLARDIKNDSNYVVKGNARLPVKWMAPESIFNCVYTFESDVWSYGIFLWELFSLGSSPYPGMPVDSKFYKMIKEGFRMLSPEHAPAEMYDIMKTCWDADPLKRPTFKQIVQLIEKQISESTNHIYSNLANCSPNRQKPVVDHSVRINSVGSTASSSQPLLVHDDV

IC50 [1]	GI50 [2]	IC50 (c-KIT)	IC50 [3]	IC50 (FLT3-D835Y)	SMILES
0.0001 to 10 µM	0.0001 to 10 µM	50 to 100 µM	–	–	CC(C)(C#N)CNS(=O)(=O)c1cccc(-c2cnc3[nH]c(-c4ccccc4)cc3c2)n1 [Compound P-0108, N-(2-cyano-2-methyl-propyl)-6-(2-phenyl-1H-pyrrolo[2,3-b]pyridin-5-yl)pyridine-2-sulfonamide]
0.0001 to 10 µM	–	–	0.0001 to 10 µM	0.0001 to 10 µM	N#CCCCNC(=O)c1cccc(-c2cnc3[nH]c(-c4ccccc4)cc3c2)n1 [Compound P-0128, N-(3-cyanopropyl)-6-(2-phenyl-1H-pyrrolo[2,3-b]pyridin-5-yl)pyridine-2-carboxamide]
0.0001 to 10 µM	–	–	0.0001 to 10 µM	0.0001 to 10 µM	CC(C)(C#N)NC(=O)c1cccc(-c2cnc3[nH]c(-c4cnn(C5CCNCC5)c4)c(Cl)c3c2)n1 [Compound P-0207, 6-[3-chloro-2-[1-(4-piperidyl)pyrazol-4-yl]-1H-pyrrolo[2,3-b]pyridin-5-yl]-N-(1-cyano-1-methyl-ethyl)pyridine-2-carboxamide]

Reference: US9938273B2 (Plexxikon Inc., priority 2015, dated 2018)
